For this test, the target named is chimeric glucocorticoid VP16/Heliothis ecdysone receptor (UniProt O18473+P04150, DEL153-392/E478D/INS403[…]/INS405[…]/M398P/P396A/P400T/P406S/R399P/S397A/Y393A). As to the kind of experiment: Maize protoplast GUS reporter assay with pMF6GRVP16HEcR and p221.9GRE6. In kind it is cell-based, Heliothis virescens. Also on record: expressed in transfected cells; host or cells: maize protoplasts (A10); stably transformed tobacco plants, pES3/pES4 (A11). The procedure:
Protoplasts were isolated from a maize suspension culture derived from BE70×A188 embryogenic callus material, which was maintained by subculturing twice weekly in MS0.5mod. (MS medium supplemented with 3% sucrose, 690 mg/l proline, 1 g/l myo-inositol, 0.2 g/l casein acid hydrolysate, 0.5 mg/l 2,4-D, pH 5.6). Cells from suspensions two days post subculture were digested in enzyme mixture (2.0% Cellulase RS, 0.2% Pectolyase Y23, 0.5 M Mannitol, 5 mM CaCl2.2H2O, 0.5% MES, pH 5.6, ˜660 mmol/kg) using ˜10 ml/g cells, incubating at 25° C., dim light, rotating gently for ˜2 hours. The digestion mixture was sieved sequentially through 250 μm and 38 μm sieves, and the filtrate centrifuged at 700 rpm for 3.5 minutes, discarding the supernatant. The protoplasts were resuspended in wash buffer (0.358 M KCl, 1.0 mM NH4NO3, 5.0 mM CaCl2.2H2O, 0.5 mM KH2PO4, pH 4.8, ˜670 mmol/kg) and pelleted as before. This washing step was repeated. The pellet was resuspended in wash buffer and the protoplasts were counted. Transformation was achieved using a Polyethylene glycol method based on Negrutiu et al. Protoplasts were resuspended at 2×10^6/ml in MaMg medium (0.4 M Mannitol, 15 mM MgCl2, 0.1% MES, pH 5.6, ˜450 mmol/kg) aliquotting 0.5 ml/treatment (i.e. 1×10^6 protoplasts/treatment). […] Protein concentrations of tissue homogenates were determined by the Bio-Rad protein assay (Bradford, 1976). […]

We go through 1 compound from patent US7183061B2, “Method of expressing Heliothis ecdysone receptor fusion protein” (Syngenta Limited, priority 1996, dated 2007).

The structures appear in SMILES notation.

Sequence of chimeric glucocorticoid VP16/Heliothis ecdysone receptor (P04150+O18473 fused with the stated changes): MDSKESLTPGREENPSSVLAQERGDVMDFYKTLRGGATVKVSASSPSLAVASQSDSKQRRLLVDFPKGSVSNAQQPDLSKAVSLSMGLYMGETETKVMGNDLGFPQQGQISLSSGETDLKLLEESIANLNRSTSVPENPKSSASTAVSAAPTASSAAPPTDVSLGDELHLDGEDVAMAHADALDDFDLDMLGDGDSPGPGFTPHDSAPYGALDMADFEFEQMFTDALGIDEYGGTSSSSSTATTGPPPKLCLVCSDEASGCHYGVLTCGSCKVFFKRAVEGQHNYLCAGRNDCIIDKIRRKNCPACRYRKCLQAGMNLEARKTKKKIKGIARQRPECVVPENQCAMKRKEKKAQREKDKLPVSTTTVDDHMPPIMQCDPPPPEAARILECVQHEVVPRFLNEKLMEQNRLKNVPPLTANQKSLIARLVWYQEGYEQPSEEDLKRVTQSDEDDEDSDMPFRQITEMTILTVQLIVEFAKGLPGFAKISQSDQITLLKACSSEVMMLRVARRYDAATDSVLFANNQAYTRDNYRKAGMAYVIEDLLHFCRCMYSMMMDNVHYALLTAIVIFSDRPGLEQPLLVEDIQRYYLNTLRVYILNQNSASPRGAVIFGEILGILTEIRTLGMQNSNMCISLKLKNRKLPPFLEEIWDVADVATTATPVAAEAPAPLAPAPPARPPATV

On to `CCc1ccc(C(=O)NN(C(=O)c2cc(C)cc(C)c2)C(C)(C)C)cc1` [RH5992, 3,5-dimethylbenzoic acid 1-1(1,1-dimethylethyl)-2(4-ethylbenzoyl)hydrazide], for which the “GUS levels relative to positive control (p35SCaMVGUS)” value (maize protoplasts (FIG. 39)) is given as “comparable to those observed with the positive control”. In addition, the “levels of expression relative to pMF6GRHEcR” value (maize protoplasts, 100 μM) is “enhanced levels of expression”.
